Source: patent US20170355705A1 (GlaxoSmithKline Intellectual Property (No.2) Limited, priority 2014, published 2017)

Target: T1, SIRT1 (Homo sapiens, UniProt Q96EB6)
T1 sequence (Q96EB6 1-747): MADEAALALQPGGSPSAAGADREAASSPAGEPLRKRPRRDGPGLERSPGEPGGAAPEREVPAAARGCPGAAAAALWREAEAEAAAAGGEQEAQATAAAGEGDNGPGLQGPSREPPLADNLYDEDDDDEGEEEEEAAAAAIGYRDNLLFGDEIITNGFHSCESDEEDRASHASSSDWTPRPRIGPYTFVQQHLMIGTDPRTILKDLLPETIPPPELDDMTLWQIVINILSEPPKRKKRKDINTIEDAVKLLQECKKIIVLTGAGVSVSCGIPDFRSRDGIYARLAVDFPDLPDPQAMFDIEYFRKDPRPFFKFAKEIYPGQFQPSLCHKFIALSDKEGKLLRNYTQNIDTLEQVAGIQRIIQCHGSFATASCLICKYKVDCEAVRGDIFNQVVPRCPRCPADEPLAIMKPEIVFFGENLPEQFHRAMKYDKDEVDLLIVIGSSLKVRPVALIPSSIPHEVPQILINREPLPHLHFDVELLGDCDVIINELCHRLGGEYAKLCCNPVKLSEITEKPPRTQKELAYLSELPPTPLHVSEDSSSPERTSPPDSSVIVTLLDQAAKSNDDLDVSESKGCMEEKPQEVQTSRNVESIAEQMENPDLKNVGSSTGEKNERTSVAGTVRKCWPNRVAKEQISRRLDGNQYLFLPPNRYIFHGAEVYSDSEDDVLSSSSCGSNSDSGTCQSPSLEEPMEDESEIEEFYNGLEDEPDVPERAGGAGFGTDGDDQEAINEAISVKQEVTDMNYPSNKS
Experiment: Trp mass spectrometry assay of SIRT1 activity (EC1.5, percent maximum activation)
Assay type: biochemical
Conditions: Trp mass spectrometry assay; for TRP MAX RESP (percent maximum fold activation): percent maximum activation of SIRT1; for TRP Activity (EC1.5): EC1.5 = concentration giving 150% activation of SIRT1
In short: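 MS readout: O-acetyl-ADP-ribose (or deacetylated peptide) formed by His-tagged SIRT1 (BL21(DE3)-expressed) on 5TMR-Trp p53-based peptide, 25 min, formic acid stop. EC1.5 = concentration raising activity 50% over no-compound control; % max activation vs control = 100%.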

## C[C@@H]1CN(c2ccc3c(n2)N(C(=O)Nc2cnccn2)[C@H]2CCN3C2)CCO1 [Example 124, (4S)-7-((R)-2-methylmorpholino)-N-(pyrazin-2-yl)-3,4-dihydro-1,4-methanopyrido[2,3-b][1,4]diazepine-5(2H)-carboxamide]
  TRP MAX RESP (percent maximum fold activation): A (Fold activation ≧150%)

## C[C@H]1CN(c2ccc3c(n2)N(C(=O)Nc2cnccn2)[C@H]2CCN3C2)CCO1 [Example 125, (4S)-7-((S)-2-methylmorpholino)-N-(pyrazin-2-yl)-3,4-dihydro-1,4-methano pyrido[2,3-b][1,4]diazepine-5(2H)-carboxamide]
  TRP MAX RESP (percent maximum fold activation): A (Fold activation ≧150%)

## Cc1cc(-c2ccc3c(n2)N(C(=O)Nc2ccc4c(c2)OCCCO4)[C@H]2CCN3C2)ccn1 [Example 126, (4S)-N-(3,4-dihydro-2H-benzo[b][1,4]dioxepin-7-yl)-7-(2-methylpyridin-4-yl)-3,4-dihydro-1,4-methanopyrido[2,3-b][1,4]diazepine-5(2H)-carboxamide]
  TRP Activity (EC1.5): A (EC1.5<1 μM)
  TRP MAX RESP (percent maximum fold activation): A (Fold activation ≧150%)

## O=C(Nc1ccnc(OC[C@H](O)CO)n1)N1c2nc(-c3cccc(C(F)(F)F)c3)ccc2N2CC[C@H]1C2 [Example 127, (4S)-N-(2-((R)-2,3-dihydroxypropoxy)pyrimidin-4-yl)-7-(3-(trifluoromethyl)phenyl)-3,4-dihydro-1,4-methanopyrido[2,3-b][1,4]diazepine-5(2H)-carboxamide]
  TRP Activity (EC1.5): A (EC1.5<1 μM)
  TRP MAX RESP (percent maximum fold activation): A (Fold activation ≧150%)

## O=C(Nc1cncc(OC[C@H](O)CO)n1)N1c2nc(-c3cccc(C(F)(F)F)c3)ccc2N2CC[C@H]1C2 [Example 128, (4S)-N-(6-((R)-2,3-dihydroxypropoxy)pyrazin-2-yl)-7-(3-(trifluoromethyl)phenyl)-3,4-dihydro-1,4-methanopyrido[2,3-b][1,4]diazepine-5(2H)-carboxamide]
  TRP Activity (EC1.5): A (EC1.5<1 μM)
  TRP MAX RESP (percent maximum fold activation): A (Fold activation ≧150%)

## Cc1cc(-c2ccc3c(n2)N(C(=O)Nc2cc4cn[nH]c4cn2)[C@H]2CCN3C2)ccn1 [Example 130, (4S)-7-(2-methylpyridin-4-yl)-N-(1H-pyrazolo[3,4-c]pyridin-5-yl)-3,4-dihydro-1,4-methanopyrido[2,3-b][1,4]diazepine-5(2H)-carboxamide]
  TRP Activity (EC1.5): A (EC1.5<1 μM)
  TRP MAX RESP (percent maximum fold activation): A (Fold activation ≧150%)

## Cc1cc(-c2ccc3c(n2)N(C(=O)Nc2cccc4nccnc24)[C@H]2CCN3C2)ccn1 [Example 131, (4S)-7-(2-methylpyridin-4-yl)-N-(quinoxalin-5-yl)-3,4-dihydro-1,4-methanopyrido[2,3-b][1,4]diazepine-5(2H)-carboxamide]
  TRP Activity (EC1.5): B (EC1.5 1-25 μM)
  TRP MAX RESP (percent maximum fold activation): A (Fold activation ≧150%)

## O=C(Nc1ccnc(OC[C@H](O)CO)c1)N1c2nc(-c3cccc(C(F)(F)F)c3)ccc2N2CC[C@H]1C2 [Example 132, (4S)-N-(2-((R)-2,3-dihydroxypropoxy)pyridin-4-yl)-7-(3-(trifluoromethyl)phenyl)-3,4-dihydro-1,4-methanopyrido[2,3-b][1,4]diazepine-5(2H)-carboxamide]
  TRP Activity (EC1.5): A (EC1.5<1 μM)
  TRP MAX RESP (percent maximum fold activation): A (Fold activation ≧150%)

## Cc1cc(-c2ccc3c(n2)N(C(=O)Nc2ccc4[nH]ncc4n2)[C@H]2CCN3C2)ccn1 [Example 133, (4S)-7-(2-methylpyridin-4-yl)-N-(1H-pyrazolo[4,3-b]pyridin-5-yl)-3,4-dihydro-1,4-methanopyrido[2,3-b][1,4]diazepine-5(2H)-carboxamide]
  TRP Activity (EC1.5): A (EC1.5<1 μM)
  TRP MAX RESP (percent maximum fold activation): A (Fold activation ≧150%)

## O=C(Nc1ccnc(OC[C@@H](O)CO)n1)N1c2nc(-c3cccc(C(F)(F)F)c3)ccc2N2CC[C@H]1C2 [Example 134, (4S)-N-(2-((S)-2,3-dihydroxypropoxy)pyrimidin-4-yl)-7-(3-(trifluoromethyl)phenyl)-3,4-dihydro-1,4-methanopyrido[2,3-b][1,4]diazepine-5(2H)-carboxamide]
  TRP Activity (EC1.5): A (EC1.5<1 μM)
  TRP MAX RESP (percent maximum fold activation): A (Fold activation ≧150%)

## Cc1cc(-c2ccc3c(n2)N(C(=O)Nc2cnccn2)[C@H]2CCN3C2)cc(C)n1 [Example 135, (4S)-7-(2,6-dimethylpyridin-4-yl)-N-(pyrazin-2-yl)-3,4-dihydro-1,4-methanopyrido[2,3-b][1,4]diazepine-5(2H)-carboxamide]
  TRP MAX RESP (percent maximum fold activation): A (Fold activation ≧150%)

## O=C(Nc1cnccn1)N1c2nc(-c3ccnc(C4CC4)c3)ccc2N2CC[C@H]1C2 [Example 136, (4S)-7-(2-cyclopropylpyridin-4-yl)-N-(pyrazin-2-yl)-3,4-dihydro-1,4-methanopyrido[2,3-b][1,4]diazepine-5(2H)-carboxamide]
  TRP Activity (EC1.5): A (EC1.5<1 μM)
  TRP MAX RESP (percent maximum fold activation): A (Fold activation ≧150%)

## CC(C)c1cc(-c2ccc3c(n2)N(C(=O)Nc2cnccn2)[C@H]2CCN3C2)ccn1 [Example 137, (4S)-7-(2-isopropylpyridin-4-yl)-N-(pyrazin-2-yl)-3,4-dihydro-1,4-methanopyrido[2,3-b][1,4]diazepine-5(2H)-carboxamide]
  TRP Activity (EC1.5): A (EC1.5<1 μM)
  TRP MAX RESP (percent maximum fold activation): A (Fold activation ≧150%)

## Cc1cc(-c2ccc3c(n2)N(C(=O)Nc2cn(C)nn2)[C@H]2CCN3C2)ccn1 [Example 138, (4S)-N-(1-methyl-1H-1,2,3-triazol-4-yl)-7-(2-methylpyridin-4-yl)-3,4-dihydro-1,4-methanopyrido[2,3-b][1,4]diazepine-5(2H)-carboxamide]
  TRP Activity (EC1.5): B (EC1.5 1-25 μM)
  TRP MAX RESP (percent maximum fold activation): A (Fold activation ≧150%)

## CCc1cc(-c2ccc3c(n2)N(C(=O)Nc2cnccn2)[C@H]2CCN3C2)ccn1 [Example 139, (4S)-7-(2-ethylpyridin-4-yl)-N-(pyrazin-2-yl)-3,4-dihydro-1,4-methanopyrido[2,3-b][1,4]diazepine-5(2H)-carboxamide]
  TRP Activity (EC1.5): A (EC1.5<1 μM)
  TRP MAX RESP (percent maximum fold activation): A (Fold activation ≧150%)

## CCOc1cc(-c2ccc3c(n2)N(C(=O)Nc2cnccn2)[C@H]2CCN3C2)ccn1 [Example 140, (4S)-7-(2-ethoxypyridin-4-yl)-N-(pyrazin-2-yl)-3,4-dihydro-1,4-methanopyrido[2,3-b][1,4]diazepine-5(2H)-carboxamide]
  TRP Activity (EC1.5): B (EC1.5 1-25 μM)
  TRP MAX RESP (percent maximum fold activation): A (Fold activation ≧150%)

## COc1cc(-c2ccc3c(n2)N(C(=O)Nc2cnccn2)[C@H]2CCN3C2)ccn1 [Example 141, (4S)-7-(2-methoxypyridin-4-yl)-N-(pyrazin-2-yl)-3,4-dihydro-1,4-methanopyrido[2,3-b][1,4]diazepine-5(2H)-carboxamide]
  TRP Activity (EC1.5): B (EC1.5 1-25 μM)
  TRP MAX RESP (percent maximum fold activation): A (Fold activation ≧150%)
